# Data: patent publication US7897175B2, “Dosage forms comprising a CETP inhibitors and an HMG-CoA reductase inhibitor” (Bend Research, Inc., priority 2002, dated 2011)
# Columns and labels:
# [1] = Aqueous solubility of torcetrapib; type: physicochemical; conditions: aqueous solution (not specified further), water, about 22° C.
# Description: The CETP inhibitor may be any compound capable of inhibiting the cholesteryl ester transfer protein. Solid amorphous dispersions are particularly useful for CETP inhibitors that have sufficiently low aqueous solubility, low bioavailability or slow rate of absorption such that it is desirable to increase their concentration in an aqueous environment of use. […] Many CETP inhibitors have even lower solubilities (some even less than 0.1 μg/mL), and require dramatic concentration enhancement to be sufficiently bioavailable upon oral dosing for effective plasma concentrations to be reached at practical doses.
# CETP inhibitors, in particular torcetrapib, and methods for preparing such compounds are disclosed in detail in U.S. Pat. Nos. 6,197,786 and 6,313,142, in PCT Application Nos. WO 01/40190A1, WO 02/088085A2, and WO 02/088069A2, the disclosures of which are herein incorporated by reference. Torcetrapib has an unusually low solubility in aqueous environments such as the lumenal fluid of the human GI tract. The aqueous solubility of torceptrapib is less than about 0.04 μg/ml. Torcetrapib must be presented to the GI tract in a solubility-enhanced form in order to achieve a sufficient drug concentration in the GI tract in order to achieve sufficient absorption into the blood to elicit the desired therapeutic effect.
# [2] = In vitro dissolution test using a microcentrifuge method (PBS); type: physicochemical; conditions: for AUC90 (area under the aqueous concentration versus time curve after 90 minutes) / C1200 (concentration at 1200 minutes) / MDC90 (maximum concentration of torcetrapib in solution during the first 90 minutes): receptor solution PBS; for Torcetrapib Concentration / AUC: PBS pH 6.5, 37° C.; for Torcetrapib Concentration: 1000 μg/mL if all drug dissolved
# Description: The spray-dried solid amorphous dispersion was evaluated in an in vitro dissolution test using a microcentrifuge method. In this test, 7.2 mg of the spray-dried solid amorphous dispersion was placed into a microcentrifuge tube. The tube was placed in a 37° C. sonicating bath, and 1.8 mL phosphate buffered saline (PBS) at pH 6.5 and 290 mOsm/kg was added, resulting in a torcetrapib concentration of 1000 μg/mL if all of the drug had dissolved. The sample was quickly mixed using a vortex mixer for about 60 seconds. The sample was centrifuged at 13,000 G at 37° C. for 1 minute. The resulting supernatant solution was then sampled and diluted 1:6 (by volume) with methanol and then analyzed by high-performance liquid chromatography (HPLC). The contents of the tube was mixed on the vortex mixer and allowed to stand undisturbed at 37° C. until the next sample was taken. Samples were collected at 4, 10, 20, 40, 90, and 1200 minutes. The concentrations of drug obtained in these samples are shown in Table 1, which represent the average of duplicate tests.
# As a control, an in vitro dissolution test was performed using the procedures described above except that 1.8 mg of crystalline drug was used.
# The spray-dried solid amorphous dispersion was evaluated in an in vitro dissolution test using a microcentrifuge method. In this test, 4.5 mg of the spray -dried solid amorphous dispersion was placed into a microcentrifuge tube. The tube was placed in a 37° C. sonicating bath, and 1.8 mL phosphate buffered saline (PBS) at ph 6.5 and 290 mOsm/kg was added, resulting in a torcetrapib concentration of 1000 μg/mL if all of the drug dissolved. The sample was quickly mixed using a vortex mixer for about 60 seconds. The sample was centrifuged at 13,000 G at 37° C. for 1 minute. The resilting superatant solution was then sampled and diluted 1:6 (by volume) with methanol and then analyzed by high-performance liquid chromatography (HPLC). The contents of the tube was mixed on the vortex mixer and allowed to stand undisturbed at 37° C. until the next sample was taken. Samples were collected at 4, 10, 20, 40, 90, and 1200 minutes. The concentrations of drug obtained in these samples are shown in Table 9, which represent the average of duplicate tests. The results using crystalline drug are included in Table 9 for […]
# [3] = Example 1 test (dispersion 25 wt % torcetrapib)
# [4] = Example 12 test (dispersion 40 wt % torcetrapib, HPMCAS-HG)
# [5] = time 0 min, Example 1 test (dispersion 25 wt % torcetrapib, HPMCAS-MG)
# [6] = time 0 min, Example 12 test (dispersion 40 wt % torcetrapib, HPMCAS-HG)
# [7] = time 4 min, Example 1 test (dispersion 25 wt % torcetrapib, HPMCAS-MG)
# [8] = time 4 min, Example 12 test (dispersion 40 wt % torcetrapib, HPMCAS-HG)
# [9] = time 10 min, Example 1 test (dispersion 25 wt % torcetrapib, HPMCAS-MG)
# [10] = time 10 min, Example 12 test (dispersion 40 wt % torcetrapib, HPMCAS-HG)
# [11] = time 20 min, Example 1 test (dispersion 25 wt % torcetrapib, HPMCAS-MG)
# [12] = time 20 min, Example 12 test (dispersion 40 wt % torcetrapib, HPMCAS-HG)
# [13] = time 40 min, Example 1 test (dispersion 25 wt % torcetrapib, HPMCAS-MG)
# [14] = time 40 min, Example 12 test (dispersion 40 wt % torcetrapib, HPMCAS-HG)
# [15] = time 90 min, Example 1 test (dispersion 25 wt % torcetrapib, HPMCAS-MG)
# [16] = time 90 min, Example 12 test (dispersion 40 wt % torcetrapib, HPMCAS-HG)
# [17] = time 1200 min, Example 1 test (dispersion 25 wt % torcetrapib, HPMCAS-MG)
# [18] = time 1200 min, Example 12 test (dispersion 40 wt % torcetrapib, HPMCAS-HG)
compound,measurement,setting,value
"CCOC(=O)N1c2ccc(C(F)(F)F)cc2[C@@H](N(Cc2cc(C(F)(F)F)cc(C(F)(F)F)c2)C(=O)OC)C[C@H]1CC [Crystalline Drug, [2R,4S]-4-[(3,5-bis-trifluoromethyl-benzyl)-methoxycarbonyl-amino]-2-ethyl-6-trifluoromethyl-3,4-dihydro-2H-quinoline-1-carboxylic acid ethyl ester]",solubility,[1],< 0.04 µg/mL
same,AUC90 (area under the aqueous concentration versus time curve after 90 minutes),[2]; [3],<88 min-μg/mL
same,C1200 (concentration at 1200 minutes),[2]; [3],<1 µg/mL
same,MDC90 (maximum concentration of torcetrapib in solution during the first 90 minutes),[2]; [3],<1 µg/mL
same,AUC90 (area under the aqueous concentration versus time curve after 90 minutes),[2]; [4],<88 min-μg/mL
same,C1200 (concentration at 1200 minutes),[2]; [4],<1 µg/mL
same,MDC90 (maximum concentration of torcetrapib in solution during the first 90 minutes),[2]; [4],<1 µg/mL
same,Torcetrapib Concentration,[2]; [5],0 µg/mL
same,Torcetrapib Concentration,[2]; [6],0 µg/mL
same,AUC,[2]; [5],0 min-μg/mL
same,AUC,[2]; [6],0 min-μg/mL
same,Torcetrapib Concentration,[2]; [7],<1 µg/mL
same,Torcetrapib Concentration,[2]; [8],<1 µg/mL
same,AUC,[2]; [7],<2 min-μg/mL
same,AUC,[2]; [8],<2 min-μg/mL
same,Torcetrapib Concentration,[2]; [9],<1 µg/mL
same,Torcetrapib Concentration,[2]; [10],<1 µg/mL
same,AUC,[2]; [9],<8 min-μg/mL
same,AUC,[2]; [10],<8 min-μg/mL
same,Torcetrapib Concentration,[2]; [11],<1 µg/mL
same,Torcetrapib Concentration,[2]; [12],<1 µg/mL
same,AUC,[2]; [11],<18 min-μg/mL
same,AUC,[2]; [12],<18 min-μg/mL
same,Torcetrapib Concentration,[2]; [13],<1 µg/mL
same,Torcetrapib Concentration,[2]; [14],<1 µg/mL
same,AUC,[2]; [13],<38 min-μg/mL
same,AUC,[2]; [14],<38 min-μg/mL
same,Torcetrapib Concentration,[2]; [15],<1 µg/mL
same,Torcetrapib Concentration,[2]; [16],<1 µg/mL
same,AUC,[2]; [15],<88 min-μg/mL
same,AUC,[2]; [16],<88 min-μg/mL
same,Torcetrapib Concentration,[2]; [17],<1 µg/mL
same,Torcetrapib Concentration,[2]; [18],<1 µg/mL
same,AUC,[2]; [17],"<1,200 min-μg/mL"
same,AUC,[2]; [18],"<1,200 min-μg/mL"
